# Laboratory results published in patent US20120277209A1, “PYRAZINE COMPOUNDS AS PHOSPHODIESTERASE 10 INHIBITORS” (Amgen Inc., priority 2009, published 2012).
# Molecular target: PDE10 (UniProt Q9Y233)
# Assay: PDE10 enzyme inhibition, IMAP TR-FRET assay (MPDE10A7 Enzyme Activity and Inhibition)
# Assay type: biochemical
# Conditions: IC50 class against PDE10; read-out: IC50
# Description: All compounds were divided in five classes based on their IC50 values against PDE10. The range of the IC50 in each class is as follows:
# An IMAP TR-FRET assay was used to analyze the enzyme activity (Molecular Devices Corp., Sunnyvale Calif.). 5 μL of serial diluted PDE10A (BPS Bioscience, San Diego, Calif.) or tissue homogenate was incubated with equal volumes of diluted fluorescein labeled cAMP or cGMP for 60 min in 384-well polystyrene assay plates (Corning, Corning, N.Y.) at room temperature. After incubation, the reaction was stopped by adding 60 μL of diluted binding reagents and was incubated for 3 hours to overnight at room temperature. The plates were read on an Envision (Perkin Elmer, Waltham, Mass.) for time resolved fluorescence resonance energy transfer. The data were analyzed with GraphPad Prism (La Jolla, Calif.).
# Enzyme Inhibition. To check the inhibition profile, 5 μL of serial diluted compounds were incubated with 5 μL of diluted PDE10 enzyme (BPS Bioscience, San Diego, Calif.) or tissue homogenate in a 384-well polystyrene assay plate (Corning, Corning, N.Y.) for 30 min at room temperature. After incubation, 10 μL of diluted fluorescein labeled cAMP or cGMP substrate were added and incubated for 60 min at room temperature. The reaction was stopped by adding 60 μL of diluted binding reagents and plates were read on an Envision (Perkin Elmer, Waltham, Mass.) for time resolved fluorescence resonance energy transfer. The data were analyzed with GraphPad Prism (La Jolla, Calif.).
# The tabulated IC50 data represent an average IC50 data for each compound.
row,SMILES,IC50 [nM]
1,"O=C(c1ccc(Oc2nccnc2Cl)cc1)c1nc2ccc(F)cc2[nH]1 [Example 4, [4-(3-CHLORO-PYRAZIN-2-YLOXY)-PHENYL]-(6-FLUORO-1H-BENZOIMIDAZOL-2-YL)-METHANONE]",1000 to 5000
2,"COC[C@@H]1CCCN1c1nccnc1Oc1ccc(Nc2nc3ccccc3s2)cc1 [Example 57, (S)—N-(4-(3-(2-(METHOXYMETHYL)PYRROLIDIN-1-YL)PYRAZIN-2-YLOXY)PHENYL)BENZO[D]THIAZOL-2-AMINE]",< 25
3,"c1ccc2sc(Nc3ccc(Oc4nccnc4NC4CCCOC4)cc3)nc2c1 (centres unmarked) [Example 58, N-(4-(3-(TETRAHYDRO-2H-PYRAN-3-YLAMINO)PYRAZIN-2-YLOXY)PHENYL)BENZO[D]THIAZOL-2-AMINE]",25 to 100
4,"CC(C)(O)[C@@H]1CCCN1c1nccnc1Oc1ccc(Nc2nc3ccccc3s2)cc1 [Example 59, (S)-2-(1-(3-(4-(BENZO[D]THIAZOL-2-YLAMINO)PHENOXY)PYRAZIN-2-YL)PYRROLIDIN-2-YL)PROPAN-2-OL]",< 25
5,"Fc1ccc2nc(Nc3ccc(Oc4nccnc4Cl)cc3)sc2c1 [Example 62, N-(4-(3-CHLOROPYRAZIN-2-YLOXY)PHENYL)-6-FLUOROBENZO[D]THIAZOL-2-AMINE]",1000 to 5000
6,"CC(C)(O)C1CCN(c2nccnc2Oc2ccc(Nc3nc4ccccc4s3)cc2)CC1 [Example 66, 2-(1-(3-(4-(benzo[d]thiazol-2-ylamino)phenoxy)pyrazin-2-yl)piperidin-4-yl)propan-2-ol]",< 25
7,"OC1CCCN(c2nccnc2Oc2ccc(Nc3nc4ccccc4s3)cc2)C1 (centres unmarked) [Example 69, 1-(3-(4-(benzo[d]thiazol-2-ylamino)phenoxy)pyrazin-2-yl)piperidin-3-ol]",< 25
8,"N#CC1CCN(c2nccnc2Oc2ccc(Nc3nc4ccccc4s3)cc2)CC1 [Example 70, 1-(3-(4-(benzo[d]thiazol-2-ylamino)phenoxy)pyrazin-2-yl)piperidine-4-carbonitrile]",< 25
9,"CC(O)(C1CCN(c2nccnc2Oc2ccc(Nc3nc4ccccc4s3)cc2)CC1)C(F)(F)F (centres unmarked) [Example 73, 2-(1-(3-(4-(benzo[d]thiazol-2-ylamino)phenoxy)pyrazin-2-yl)piperidin-4-yl)-1,1,1-trifluoropropan-2-ol]",250 to 1000
10,"CC1CN(c2nccnc2Oc2ccc(Nc3nc4ccccc4s3)cc2)CC(C)O1 (centres unmarked) [Example 74, N-(4-(3-(2,6-dimethylmorph-olino)pyrazin-2-yloxy)phenyl)-benzo[d]thiazol-2-amine]",25 to 100
11,"O=S1(=O)CCN(c2nccnc2Oc2ccc(Nc3nc4ccccc4s3)cc2)CC1 [Example 75, N-(4-((3-(1,1-dioxido-4-thio-morpholinyl)-2-pyrazinyl)oxy)-phenyl)-1,3-benzothiazol-2-amine]",250 to 1000

# The remaining lines, values ahead:
row,IC50 [nM],SMILES
1,1000 to 5000,"O=C(c1ccc(Oc2nccnc2Cl)cc1)c1nc2ccccc2[nH]1 [Example 3, (1H-BENZO[D]IMIDAZOL-2-YL)(4-(3-CHLOROPYRAZIN-2-YLOXY)PHENYL)METHANONE]"
2,25 to 100,"CC(C)n1c(C(=O)c2ccc(Oc3nccnc3N3CCOCC3)cc2)nc2ccccc21 [Example 6, (1-ISOPROPYL-1H-BENZO[D]IMIDAZOL-2-YL)(4-(3-MORPHOLINOPYRAZIN-2-YLOXY)PHENYL)METHANONE]"
3,100 to 250,"FC(F)(c1ccc(Oc2nccnc2N2CCOCC2)cc1)c1nc2ccccc2[nH]1 [Example 7, 4-(3-(4-((1H-BENZO[D]IMIDAZOL-2-YL)DIFLUOROMETHYL)PHENOXY)PYRAZIN-2-YL)MORPHOLINE]"
4,< 25,"CC1(O)CCN(c2nccnc2Oc2ccc(Nc3nc4ccccc4s3)cc2)CC1 [Example 60, 1-(3-(4-(BENZO[D]THIAZOL-2-YLAMINO)PHENOXY)PYRAZIN-2-YL)-4-METHYLPIPERIDIN-4-OL]"
5,25 to 100,"Fc1ccc2[nH]c(Nc3ccc(Oc4nccnc4N4CCOCC4)cc3)nc2c1 [Example 64, 5-fluoro-N-(4-(3-morpholinopyrazin-2-yloxy)phenyl)-1H-benzo[d]imidazol-2-amine]"
6,< 25,"OC1CCN(c2nccnc2Oc2ccc(Nc3nc4ccccc4s3)cc2)CC1 [Example 67, 1-(3-(4-(benzo[d]thiazol-2-ylamino)phenoxy)pyrazin-2-yl)piperidin-4-ol]"
7,25 to 100,"c1ccc2sc(Nc3ccc(Oc4nccnc4N4CCCC4)cc3)nc2c1 [Example 68, N-(4-(3-(pyrrolidin-1-yl)pyrazin-2-yloxy)phenyl)benzo[d]thiazol-2-amine]"
8,25 to 100,"CC(=O)N1CCN(c2nccnc2Oc2ccc(Nc3nc4ccccc4s3)cc2)CC1 [Example 71, 1-(4-(3-(4-(benzo[d]thiazol-2-ylamino)phenoxy)pyrazin-2-yl)piperazin-1-yl)ethanone]"
9,25 to 100,"CN1CCN(c2nccnc2Oc2ccc(Nc3nc4ccccc4s3)cc2)CC1 [Example 72, N-(4-(3-(4-methylpiperazin-1-yl)pyrazin-2-yloxy)phenyl)-benzo[d]thiazol-2-amine]"

# Same assay, conditions: PDE10 enzyme inhibition; average IC50 data for each compound; read-out: Average IC50
row,SMILES,IC50 [nM]
1,N#C[C@H]1CCN(c2nccnc2Oc2ccc(Nc3nc4ccccc4s3)cc2)C1 (stereo in doubt),3.3
2,COC(=O)[C@H]1CCN(c2nccnc2Oc2ccc(Nc3nc4ccccc4s3)cc2)C1 (stereo in doubt),23
3,COC[C@@H]1CCN(c2nccnc2Oc2ccc(Nc3nc4ccccc4s3)cc2)C1 (stereo in doubt),22.6
4,CO[C@@H]1CC=C(c2nccnc2Oc2ccc(C(=O)c3nc4ccccc4[nH]3)cc2)CC1 (stereo in doubt),4
5,c1ccc2sc(Nc3ccc(Oc4nccnc4[C@H]4CCOC4)cc3)nc2c1 (stereo in doubt),2.03
6,c1ccc2sc(Nc3ccc(Oc4nccnc4[C@H]4CCCOC4)cc3)nc2c1 (stereo in doubt),2.43
7,O[C@@H]1CCC[C@H](c2nccnc2Oc2ccc(Nc3nc4ccccc4s3)cc2)C1 (stereo in doubt),2.32
8,O=C(c1ccc(Oc2nccnc2[C@@H]2CCC[C@H](O)C2)cc1)c1nc2ccccc2[nH]1 (stereo in doubt),1.02
9,CC(=O)N1CC[C@@H](c2nccnc2Oc2ccc(Nc3nc4ccccc4s3)cc2)C1 (stereo in doubt),1.82
10,C[C@H](F)C(=O)N1CCC(c2nccnc2Oc2ccc(Nc3nc4ccccc4s3)cc2)CC1 (stereo in doubt),0.178
11,CC(=O)O[C@@H](C)C(=O)N1CCC(c2nccnc2Oc2ccc(C(=O)c3nc4ccccc4[nH]3)cc2)CC1 (stereo in doubt),0.119
12,C[C@@H](O)C(=O)N1CCC(c2nccnc2Oc2ccc(Nc3nc4ccccc4s3)cc2)CC1 (stereo in doubt),0.0455
13,COc1ncccc1-c1nccnc1Oc1ccc([C@H](O)c2nc3ccccc3[nH]2)cc1 (stereo in doubt),14.9
14,O[C@@H]1C=C(c2nccnc2Oc2ccc(Nc3nc4ccccc4s3)c(F)c2)CCC1 (stereo in doubt),7.9
15,O=C(c1ccc(Oc2nccnc2[C@@H]2CCC[C@@H](O)C2)cc1)c1nc2ccccc2[nH]1 (stereo in doubt) [drawing 898],1.25

# Results, then the compound that gave them:
row,IC50 [nM],SMILES
1,7.6,O=C(c1ccc(Oc2nccnc2N2CC[C@@H](O)C2)cc1)c1nc2ccccc2[nH]1 (stereo in doubt)
2,1.32,N#C[C@@H]1CCN(c2nccnc2Oc2ccc(C(=O)c3nc4ccccc4[nH]3)cc2)C1 (stereo in doubt)
3,2.59,O=C(c1ccc(Oc2nccnc2[C@H]2CCCOC2)cc1)c1nc2ccccc2[nH]1 (stereo in doubt)
4,3.43,COC(=O)[C@@H]1CCN(c2nccnc2Oc2ccc(C(=O)c3nc4ccccc4[nH]3)cc2)C1 (stereo in doubt)
5,0.773,CCOC(=O)[C@@H]1CCCN(c2nccnc2Oc2ccc(C(=O)c3nc4ccccc4[nH]3)cc2)C1 (stereo in doubt)
6,3.73,Cc1noc([C@@H]2CCN(c3nccnc3Oc3ccc(C(=O)c4nc5ccccc5[nH]4)cc3)C2)n1 (stereo in doubt)
7,0.749,C[C@@H](O)C1CCN(c2nccnc2Oc2ccc(C(=O)c3nc4ccccc4[nH]3)cc2)CC1 (stereo in doubt)
8,1.86,O=C(c1ccc(Oc2nccnc2N2CCC[C@H](CCO)C2)cc1)c1nc2ccccc2[nH]1 (stereo in doubt)
9,29,CC(C)(O)[C@H]1CCCN(c2nccnc2Oc2ccc(C(=O)c3nc4ccccc4[nH]3)cc2)C1 (stereo in doubt)
10,2.57,C[C@@H]1CN(c2nccnc2Oc2ccc(C(=O)c3nc4ccccc4[nH]3)cc2)CC(=O)N1 (stereo in doubt)
11,1.22,O=C(c1ccc(Oc2nccnc2[C@@H]2CCCOCC2)cc1)c1nc2ccccc2[nH]1 (stereo in doubt)
12,7.63,CC(=O)N1CC[C@@H](c2nccnc2Oc2ccc(C(=O)c3nc4ccccc4[nH]3)cc2)C1 (stereo in doubt)
13,2.96,CC(=O)N1CCC[C@@H](c2nccnc2Oc2ccc(C(=O)c3nc4ccccc4[nH]3)cc2)C1 (stereo in doubt)
14,0.132,C[C@@H](F)C(=O)N1CCC(c2nccnc2Oc2ccc(C(=O)c3nc4ccccc4[nH]3)cc2)CC1 (stereo in doubt)

# Same assay, conditions: PDE10 enzyme inhibition; chiral compounds separated from racemic mixtures; read-out: IC50
row,IC50 [nM],SMILES
1,< 25,"O=C(c1ccc(Oc2nccnc2[C@@H]2CCC[C@@H](O)C2)cc1)c1nc2ccccc2[nH]1 (stereo in doubt) [Example 274, (1H-benzo[d]imidazol-2-yl)(4-(3-((1R,3R)-3-hydroxycyclohexyl)pyrazin-2-yloxy)phenyl) methanone]"
